BindingDB's records for PubMed 32539378 (Shandong University, 2020)

Columns and labels:
[1] = target: Angiotensin-converting enzyme 2 (Homo sapiens, UniProt Q9BYF1); assay: Inhibition of SARS-COV2 S-RBD binding to human ACE2 expressed in HEK293T cells by NanoLuc luciferase assay
Spike glycoprotein = Spike glycoprotein (Severe acute respiratory syndrome coronavirus 2, UniProt P0DTC2); assay: Inhibition of SARS-COV2 spike protein mediated infection of human ACE2 expressing cells at 50 uM […]
[2] = Inhibition of SARS-COV2 spike protein mediated infection of human ACE2 expressing cells at 50 uM […]

Chain of Angiotensin-converting enzyme 2 (Q9BYF1 whole entry): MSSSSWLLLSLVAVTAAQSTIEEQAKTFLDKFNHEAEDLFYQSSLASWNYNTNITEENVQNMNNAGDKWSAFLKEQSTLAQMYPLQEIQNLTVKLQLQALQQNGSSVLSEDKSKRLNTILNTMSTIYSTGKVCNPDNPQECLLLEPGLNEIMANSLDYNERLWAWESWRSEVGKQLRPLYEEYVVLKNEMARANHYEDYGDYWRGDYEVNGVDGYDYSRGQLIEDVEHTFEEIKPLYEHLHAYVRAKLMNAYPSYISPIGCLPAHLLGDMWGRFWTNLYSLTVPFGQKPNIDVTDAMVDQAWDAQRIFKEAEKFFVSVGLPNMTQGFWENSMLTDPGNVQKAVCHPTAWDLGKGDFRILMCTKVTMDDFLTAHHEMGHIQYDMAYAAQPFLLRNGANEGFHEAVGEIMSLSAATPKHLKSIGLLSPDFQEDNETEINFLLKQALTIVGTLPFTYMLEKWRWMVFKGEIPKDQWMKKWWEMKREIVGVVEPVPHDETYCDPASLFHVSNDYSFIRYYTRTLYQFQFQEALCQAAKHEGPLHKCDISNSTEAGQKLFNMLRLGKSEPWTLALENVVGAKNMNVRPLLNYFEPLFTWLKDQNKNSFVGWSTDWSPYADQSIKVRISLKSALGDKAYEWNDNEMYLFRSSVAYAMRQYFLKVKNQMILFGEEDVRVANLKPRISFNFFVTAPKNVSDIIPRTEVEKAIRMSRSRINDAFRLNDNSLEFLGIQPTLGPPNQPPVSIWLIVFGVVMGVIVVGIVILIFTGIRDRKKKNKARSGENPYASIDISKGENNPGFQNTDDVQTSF

SMILES | IC50 [2] [nM] | other results
COc1cc(C)nc2c(OC)cc(Cc3cnc(N)nc3N)cc12 | – | IC50 [1]: 700 nM
COc1cc(Cc2cnc(N)nc2N)cc2c(N(C)C)cc(C)nc12 | – | IC50 (Spike glycoprotein): 600 nM
O=c1cc(-c2ccc(O)c(O)c2)oc2cc(O)cc(O)c12 [2-(3,4-dihydroxyphenyl)-5,7-dihydroxy-4H-chromen-4-one] | 10600 | –
O=C(OC[C@H]1O[C@@H](OC(=O)c2cc(O)c(O)c(O)c2)[C@H](OC(=O)c2cc(O)c(O)c(O)c2)[C@H](OC(=O)c2cc(O)c(O)c(O)c2)[C@@H]1O)c1cc(O)c(O)c(O)c1 [med.21724, Compound 2] | 4500 | –
